Laboratory results: PubChem BioAssay (NCI)
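Tested at 5 concentrations; 48 h exposure; 96-well plates; endpoints linearly interpolated, else capped at highest concentration. TGI: total growth inhibition.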

Legend:
Experiment in all cases: NCI tumour cell line growth inhibition, 48 h
MOLT-4 leukemia = system: MOLT-4 leukemia
DLD-1 colon = system: DLD-1 colon
UO-31 renal = system: UO-31 renal
M19-MEL melanoma = system: M19-MEL melanoma
K-562 leukemia = system: K-562 leukemia
XF 498 CNS = system: XF 498 CNS
SNB-78 CNS = system: SNB-78 CNS
LXFL 529 NSCLC = system: LXFL 529 NSCLC
OVCAR-4 ovarian = system: OVCAR-4 ovarian
786-0 renal = system: 786-0 renal
RXF-631 renal = system: RXF-631 renal
DMS 273 small cell lung = system: DMS 273 small cell lung
P388 leukemia = system: P388 leukemia
DMS 114 small cell lung = system: DMS 114 small cell lung
KM20L2 colon = system: KM20L2 colon
HOP-18 NSCLC = system: HOP-18 NSCLC

| Compound | TGI (MOLT-4 leukemia) [µM] | TGI (DLD-1 colon) [µM] | TGI (UO-31 renal) [µM] | TGI (M19-MEL melanoma) [µM] | TGI (K-562 leukemia) [µM] | TGI (XF 498 CNS) [µM] | TGI (SNB-78 CNS) [µM] | TGI (LXFL 529 NSCLC) [µM] | TGI (OVCAR-4 ovarian) [µM] | TGI (786-0 renal) [µM] | TGI (RXF-631 renal) [µM] | TGI (DMS 273 small cell lung) [µM] | TGI (P388 leukemia) [µM] | TGI (DMS 114 small cell lung) [µM] | TGI (KM20L2 colon) [µM] | TGI (HOP-18 NSCLC) [µM] |
| --- | --- | --- | --- | --- | --- | --- | --- | --- | --- | --- | --- | --- | --- | --- | --- | --- |
| O=C1c2ccccc2C(=O)c2c(O)c(O)cc(O)c21 | 97.9 | > 100 | 49.2 | > 100 | > 100 | 86.3 | > 100 | > 100 | > 100 | > 100 | > 100 | > 100 |  |  |  |  |
| Nc1nncs1 | > 4900 | > 5000 | > 5000 | > 4550 | > 5000 | 3890 | > 4420 |  | > 5000 | > 5000 |  | > 5000 | 2670 | > 5000 | > 4800 | > 5000 |
| COC(=O)/C(=C/CC(N=C(c1ccccc1)c1ccccc1)C(=O)OC)N=C(c1ccccc1)c1ccccc1 (stereo unspecified) | > 100 | > 100 | > 100 | > 100 | > 100 | > 100 |  | > 100 | > 100 | > 100 |  | > 100 |  | 82.1 |  |  |
| Nc1ccc(C(=O)NN2C(=O)C(Cl)C2c2ccccc2O)cc1 (stereo unspecified) | > 100 | > 100 | 75.2 | > 100 | > 100 | > 100 | > 100 | > 100 | > 100 | > 100 |  | > 100 |  | 79.6 | > 100 |  |
| CCOC(=O)C1C(c2ccc([N+](=O)[O-])cc2)NC(c2ccc([N+](=O)[O-])cc2)C(C(=O)OC)S1(=O)=O (stereo unspecified) | > 100 | > 100 | > 100 | > 100 | > 100 | > 100 | > 100 | > 100 | > 100 | > 100 |  | > 100 |  | > 100 | > 100 | > 100 |
| COc1cc(CCCC(O)COc2cccc3c2C2(O)CCCCCC32)cc(OC)c1 (stereo unspecified) | 48.2 | 36.6 | 28.9 | 32.7 | 31.1 | 35.8 | 43.3 | 33.5 | 40.6 | 28.7 |  | 34.8 |  | 23.4 | 28.1 | 33.1 |
| CN(CCO)c1nc2c(c(=O)[nH]1)CNCC2 | > 100 | > 100 | > 100 | > 100 | > 100 | > 100 | > 100 | > 100 | > 100 | > 100 |  | > 100 |  | > 100 | > 100 | > 100 |
| O=C1/C(=C/c2ccccc2)CCCC/C1=C\c1ccccc1 | > 100 | > 100 | > 100 | > 100 |  | > 100 | > 100 | > 100 | > 100 | > 100 | > 100 | > 100 |  | > 100 | > 100 | > 100 |
| CO[C@H](c1ccccc1)[C@H](O)[C@](O)(c1ccccc1)P(=O)(OC)OC | > 100 |  | > 100 |  | > 100 |  |  |  | > 100 | > 100 |  |  |  |  |  |  |
| O=c1[nH]c2ccsc2c(=O)n1COCc1ccccc1 | > 100 |  | > 100 |  | > 100 |  |  |  | > 100 | > 100 |  |  |  |  |  |  |
| CC1=[N+]([O-])C(C)(C)N(O)C1(C)C | > 100 |  | > 100 |  | > 100 |  |  |  | > 100 | > 100 |  |  |  |  |  |  |
